Laboratory results reported in patent US9073858B2, “Methods of targeted drug development” (priority 2010, dated 2015).
Read-outs that look alike come from different tables or passages of the source.

Key:
MDBK line = experiment: MTT Cell Proliferation Assay, MDBK line; assay type: cell-based, bovine
Procedure, shortened: (§1)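 Cells plated overnight, then exposed 3 days at 37 °C, 5% CO2 to compound in growth medium with 0.5% FBS and 0.5% DMSO final (0.5% DMSO as control).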

EGFR = biological target: T1, EGFR (Homo sapiens, UniProt P00533); experiment: EGFR in-cell Western (ICW) screening protocol; assay type: cell-based; design: unit not given here; settings: for ICW Screen: initial screen
T1 construct: endogenous in cells; host or cells: A431 cells (ATCC CRL-1555)
T1 sequence (P00533 25-1210): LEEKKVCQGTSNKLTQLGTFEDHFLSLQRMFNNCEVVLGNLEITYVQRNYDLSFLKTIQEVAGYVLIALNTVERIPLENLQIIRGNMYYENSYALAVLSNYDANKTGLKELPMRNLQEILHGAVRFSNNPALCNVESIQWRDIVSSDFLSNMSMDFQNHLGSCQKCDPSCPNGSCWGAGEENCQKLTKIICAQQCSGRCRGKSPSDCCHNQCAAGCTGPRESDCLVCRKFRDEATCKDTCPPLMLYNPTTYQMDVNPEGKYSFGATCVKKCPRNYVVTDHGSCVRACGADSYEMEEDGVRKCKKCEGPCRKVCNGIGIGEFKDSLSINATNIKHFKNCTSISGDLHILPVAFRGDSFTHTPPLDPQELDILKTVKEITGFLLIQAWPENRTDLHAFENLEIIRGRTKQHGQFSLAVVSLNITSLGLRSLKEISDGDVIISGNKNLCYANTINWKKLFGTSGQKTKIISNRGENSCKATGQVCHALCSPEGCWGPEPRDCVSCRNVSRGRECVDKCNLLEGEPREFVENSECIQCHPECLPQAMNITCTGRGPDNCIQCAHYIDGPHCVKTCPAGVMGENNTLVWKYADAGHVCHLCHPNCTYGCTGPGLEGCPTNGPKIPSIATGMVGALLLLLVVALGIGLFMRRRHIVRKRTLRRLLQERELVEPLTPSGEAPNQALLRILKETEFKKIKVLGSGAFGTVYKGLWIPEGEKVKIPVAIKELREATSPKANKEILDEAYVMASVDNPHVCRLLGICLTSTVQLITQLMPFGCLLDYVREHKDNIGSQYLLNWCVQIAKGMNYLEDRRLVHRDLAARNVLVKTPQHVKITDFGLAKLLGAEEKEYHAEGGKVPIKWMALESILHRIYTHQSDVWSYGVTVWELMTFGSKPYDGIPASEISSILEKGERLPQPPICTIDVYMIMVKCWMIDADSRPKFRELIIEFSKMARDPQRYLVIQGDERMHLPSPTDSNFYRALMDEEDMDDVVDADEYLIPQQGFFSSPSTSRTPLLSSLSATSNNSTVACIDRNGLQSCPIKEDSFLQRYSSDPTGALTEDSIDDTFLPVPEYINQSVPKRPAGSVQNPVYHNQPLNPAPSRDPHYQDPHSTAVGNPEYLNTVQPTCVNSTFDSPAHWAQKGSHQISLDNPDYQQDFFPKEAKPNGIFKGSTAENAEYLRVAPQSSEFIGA
Procedure, shortened: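 Serum-starved cells treated with compound 4 h at 37 °C, then stimulated with EGF (20 or 0 ng/ml solution added) in its continued presence. In-cell Western on fixed cells: phospho-EGFR (800 channel) normalised to total EGFR (700 channel), % inhibition calculated against EGF-stimulated and unstimulated no-compound wells.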

[1] = system: epithelial carcinoma A431 cell line; experiment: MTT Cell Proliferation Assay, A431 cell line; assay type: cell-based; settings: for MTT (10 Point follow-up) ratio / MTT-72 h A431/MDBK (ratio): value in brackets; for MTT (10 Point follow-up) ratio: numerically MDBK over A431; for MTT-72 h A431/MDBK (ratio): numerically MDBK value over A431 value
Procedure, shortened: as §1

[2] = Bos taurus, MDBK, 72 h, second value of A431/MDBK pair, read-out: MTT-72 h MDBK
[3] = Homo sapiens, A-431, 72 h, 72 h, first value of A431/MDBK pair, read-out: MTT-72 h A431
[4] = Bos taurus, MDBK, 10 point follow-up, second value of pair, read-out: MTT (10 Point follow-up) MDBK
[5] = Homo sapiens, A-431, 10 point follow-up, first value of pair, read-out: MTT (10 Point follow-up) A431

Compound | IC50 (MDBK line; [2]) [µM] | ICW Screen (EGFR) | ICW Re-Test (EGFR) | MTT (10 Point follow-up) ratio ([1]; 10 point follow-up) | MTT-72 h A431/MDBK (ratio) ([1]; 72 h) | IC50 [1, 3] [µM] | IC50 (MDBK line; 72 h, second value of A431/MDBK pair, read-out: MTT-72 h MDBK) [µM] | IC50 ([1]; 72 h, first value of A431/MDBK pair, read-out: MTT-72 h A431) [µM] | IC50 (MDBK line; [4]) [µM] | IC50 [1, 5] [µM] | IC50 (MDBK line; 10 point follow-up, second value of pair, read-out: MTT (10 Point follow-up) MDBK) [µM] | IC50 ([1]; 10 point follow-up, first value of pair, read-out: MTT (10 Point follow-up) A431) [µM]
CCOc1ccc(C(Nc2cccnc2)c2cc(Cl)c3cccnc3c2O)cc1 (stereo not drawn) [compound 10945] | 1.87 | 82.22 | 81.41 | 0.76 | 0.67 | 2.79 |  |  |  |  |  | 
Oc1c(C(Nc2ccc(F)cc2)c2ccncc2)ccc2cccnc12 (stereo not drawn) [compound 11153] | 5.58 | 28.24 | 20.64 |  | 0.43 | 13.1 |  |  |  |  |  | 
Cc1ccc(C(Nc2cccc(C)n2)c2ccc3cccnc3c2O)cc1 (stereo not drawn) [compound 10054] | 5.46 | 35.84 |  |  | 1.00 | 5.47 |  |  |  |  |  | 
C=CCOc1cccc(C(Nc2ccccn2)c2ccc3cccnc3c2O)c1 (stereo not drawn) [compound 10050] | 5.35 | 32.11 |  |  | 0.97 | 5.39 |  |  |  |  |  | 
COc1ccc(C(Nc2ccccn2)c2ccc3ccc(C)nc3c2O)cc1OC (stereo not drawn) [compound 10006] | 15.1 | 35.13 | 45.57 |  | 1.37 | 11 |  |  |  |  |  | 
Cc1cccc(NC(c2ccc3c(c2)OCO3)c2ccc3cccnc3c2O)n1 (stereo not drawn) [compound 10055] |  | 28.09 |  |  | 0.68 |  | 8.17 | 12.1 |  |  |  | 
Cc1ccc(C)c(C(Nc2cccnc2)c2cc(Cl)c3cccnc3c2O)c1 (stereo not drawn) [compound 10944] | 2.96 | 68.22 | 67.75 |  |  | 2.03 |  |  | 2.73 | 1.86 |  | 
CCN1CCN(C(c2cccnc2)c2cc(Cl)c3cccnc3c2O)CC1 (stereo not drawn) [compound 10547] | 5.96 | 26.4 |  |  | 0.52 | 11.5 |  |  |  |  |  | 
Cc1ccnc(NC(c2ccccn2)c2ccc3cccnc3c2O)c1 (stereo not drawn) [compound 10939] | 6.78 | 32.68 | 33.81 |  | 1.20 | 5.67 |  |  |  |  |  | 
Oc1cccnc1NC(c1ccccc1F)c1ccc2cccnc2c1O (stereo not drawn) [compound 10512] |  | 12.86 |  | 1.92 |  |  |  |  | 0.991 | 0.517 |  | 
CCOc1cc(C(Nc2ccccn2)c2ccc3cccnc3c2O)ccc1OC (stereo not drawn) [compound 1968] | 6.15 | 46.48 | 20.95 |  | 0.86 | 7.14 |  |  |  |  |  | 
O=C(O)c1ccc(C(Nc2ccccn2)c2cc(Cl)c3cccnc3c2O)cc1 (stereo not drawn) [compound 10093] | 21.5 | 25.13 |  |  | 0.68 | 31.4 |  |  |  |  |  | 
Oc1cc2cccnc2cc1C(Nc1ccccn1)c1cccs1 (stereo not drawn) [compound 10938] | 22.1 | 40.36 | 24.99 |  | 0.88 | 25.3 |  |  |  |  |  | 
Cc1cccc(NC(c2ccc(C(F)(F)F)cc2)c2ccc3cccnc3c2O)n1 (stereo not drawn) [compound 10628] | 0.76 | 30.02 |  |  |  | 0.32 |  |  | 0.689 | 0.311 |  | 
Cc1ccnc(NC(c2ccccc2F)c2ccc3cccnc3c2O)c1 (stereo not drawn) [compound 10488] |  | 15.95 |  | 1.20 |  |  |  |  | 2.22 | 1.85 |  | 
Oc1c(C(Nc2ccccn2)c2ccc(Cl)cc2Cl)ccc2cccnc12 (stereo not drawn) [compound 10046] |  | 12.78 |  | 1.87 |  |  |  |  |  |  | 3.1 | 1.66
CCOc1ccc(C(Nc2ccccn2)c2ccc3cccnc3c2O)cc1O (stereo not drawn) [compound 10013] | 6.42 | 61.2 | 62.77 | 1.79 | 1.80 | 3.56 |  |  | 6.32 | 3.53 |  | 
Cc1ccc2ccc(C(Nc3ccccn3)c3ccc(O)cc3)c(O)c2n1 (stereo not drawn) [compound 1997] | 24.3 | 29 |  |  | 0.52 | 46.8 |  |  |  |  |  | 
Oc1c(C(Nc2ccccn2)c2ccccc2F)ccc2cccnc12 (stereo not drawn) [compound 10033] | 4.62 | 49.36 | 5.98 | 2.44 | 2.49 | 1.85 |  |  | 4.43 | 1.81 |  | 
Cc1cccc(NC(c2ccc(Cl)cc2)c2ccc3cccnc3c2O)n1 (stereo not drawn) [compound 10058] | 5.83 | 28.52 |  | 1.56 | 1.13 | 5.14 |  |  | 1.68 | 1.08 |  | 
COc1ccc(Cl)cc1C(Nc1ccccn1)c1cc(Cl)c2cccnc2c1O (stereo not drawn) [compound 10943] | 2.1 | 44.28 | 68.79 | 1.50 | 1.60 | 1.31 |  |  | 1.88 | 1.25 |  | 
C=CCOc1ccc(C(Nc2ccccn2)c2ccc3cccnc3c2O)cc1 (stereo not drawn) [compound 10052] |  | 43.1 | 20.95 | 0.67 |  | 2.35 |  |  | 9.25 | 13.8 |  | 
Cc1ccnc(NC(c2cccc(OCc3ccccc3)c2)c2ccc3cccnc3c2O)c1 (stereo not drawn) [compound 10053] |  | 32.85 |  | 0.11 |  |  |  |  | 0.44 | 3.98 |  | 
COc1cc(C(Nc2ccccn2)c2cc(Cl)c3cccnc3c2O)cc(I)c1O (stereo not drawn) [compound 10086] | 4.61 | 53.89 | 25.94 |  | 0.77 | 5.96 |  |  |  |  |  | 
Oc1c(C(Nc2ccccn2)c2ccsc2)ccc2cccnc12 (stereo not drawn) [compound 10957] | 14.1 | 49.8 | 39.03 |  | 0.80 | 17.5 |  |  |  |  |  | 
COc1ccccc1NC(c1cccnc1)c1ccc2cccnc2c1O (stereo not drawn) [compound 11102] | 7.66 | 44.31 | 39.06 |  | 1.04 | 7.39 |  |  |  |  |  | 
Cc1cccc(NC(c2ccc(C)s2)c2ccc3ccc(C)nc3c2O)n1 (stereo not drawn) [compound 10952] | 7.77 | 49.39 | 43.94 |  | 0.74 | 10.5 |  |  |  |  |  | 
CCOc1ccc(C(Nc2cc(C)ccn2)c2ccc3cccnc3c2O)cc1OCC (stereo not drawn) [compound 10143] | 4.33 | 45.61 | 27.18 |  | 0.92 | 4.74 |  |  |  |  |  | 
CC(C)C(=O)NC(c1cccs1)c1cc([N+](=O)[O-])c2cccnc2c1O (stereo not drawn) [compound 10950] | 0.95 | 33.87 | 99.56 | 1.63 | 1.70 | 0.56 |  |  | 0.878 | 0.54 |  | 
CCOc1ccccc1C(Nc1ccccn1)c1ccc2ccc(C)nc2c1O (stereo not drawn) [compound 10049] | 11.5 | 35.57 |  |  | 0.94 | 12.2 |  |  |  |  |  | 
